Reference: ChEMBL document CHEMBL1909046, “DrugMatrix in vitro pharmacology data”

Legend:
[1] = molecular target: T1, Thromboxane-A synthase (Homo sapiens, UniProt P24557); assay: biochemical; format: tissue-based, Platelet; details: platelet;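 further: enzyme inhibition assay with PGH2 supplied as substrate; in other assays of this panel Not Active means under 50% inhibition at 10 µM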
T1 sequence (P24557 whole entry): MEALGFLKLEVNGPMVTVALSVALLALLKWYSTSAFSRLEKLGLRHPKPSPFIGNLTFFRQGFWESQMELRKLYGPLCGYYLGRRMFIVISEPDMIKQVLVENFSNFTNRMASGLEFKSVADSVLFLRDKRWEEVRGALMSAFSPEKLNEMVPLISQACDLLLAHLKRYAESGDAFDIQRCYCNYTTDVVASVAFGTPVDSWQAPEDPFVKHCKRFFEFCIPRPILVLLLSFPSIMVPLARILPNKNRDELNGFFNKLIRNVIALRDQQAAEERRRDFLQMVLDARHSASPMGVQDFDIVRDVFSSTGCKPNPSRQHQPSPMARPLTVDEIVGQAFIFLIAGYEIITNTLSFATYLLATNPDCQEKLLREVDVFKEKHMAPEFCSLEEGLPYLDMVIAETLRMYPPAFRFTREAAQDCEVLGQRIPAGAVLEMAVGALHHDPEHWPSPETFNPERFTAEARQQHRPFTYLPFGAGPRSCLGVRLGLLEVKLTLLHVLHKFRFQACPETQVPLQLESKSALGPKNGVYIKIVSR

[2] = molecular target: T2, Estrogen receptor (Homo sapiens, UniProt P03372); details: sf9; further: in other assays of this panel Not Active means under 50% inhibition at 10 µM
T2 sequence (P03372 whole entry): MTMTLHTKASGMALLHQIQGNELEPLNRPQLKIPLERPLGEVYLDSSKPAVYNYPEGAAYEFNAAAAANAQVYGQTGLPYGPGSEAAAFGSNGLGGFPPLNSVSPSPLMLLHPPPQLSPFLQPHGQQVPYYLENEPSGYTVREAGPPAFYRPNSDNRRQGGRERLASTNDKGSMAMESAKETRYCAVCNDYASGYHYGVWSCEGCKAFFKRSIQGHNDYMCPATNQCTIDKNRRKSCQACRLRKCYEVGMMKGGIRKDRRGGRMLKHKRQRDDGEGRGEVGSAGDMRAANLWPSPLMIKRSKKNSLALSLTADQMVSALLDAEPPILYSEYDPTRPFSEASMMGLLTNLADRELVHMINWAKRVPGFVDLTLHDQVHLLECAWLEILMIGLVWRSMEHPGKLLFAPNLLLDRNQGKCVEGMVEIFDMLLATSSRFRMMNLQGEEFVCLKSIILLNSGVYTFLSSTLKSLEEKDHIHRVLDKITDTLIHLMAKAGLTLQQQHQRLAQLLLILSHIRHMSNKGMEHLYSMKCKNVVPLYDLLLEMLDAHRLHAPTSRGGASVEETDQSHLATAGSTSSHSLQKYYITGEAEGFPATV

[3] = molecular target: T3, Cysteinyl leukotriene receptor 1 (Homo sapiens, UniProt Q9Y271); format: cell membranes, Membrane; details: cho-k1; further: in other assays of this panel Not Active means under 50% inhibition at 10 µM
T3 sequence (Q9Y271 whole entry): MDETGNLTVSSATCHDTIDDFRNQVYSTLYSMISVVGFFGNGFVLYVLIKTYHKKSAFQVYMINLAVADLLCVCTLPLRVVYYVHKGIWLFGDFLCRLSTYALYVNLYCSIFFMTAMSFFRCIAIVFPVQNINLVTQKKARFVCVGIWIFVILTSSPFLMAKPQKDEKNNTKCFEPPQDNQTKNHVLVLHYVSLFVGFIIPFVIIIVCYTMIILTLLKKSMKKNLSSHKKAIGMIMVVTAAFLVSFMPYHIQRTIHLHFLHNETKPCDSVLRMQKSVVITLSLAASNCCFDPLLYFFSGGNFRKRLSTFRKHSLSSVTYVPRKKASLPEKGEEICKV

[4] = molecular target: T4, Alpha-1A adrenergic receptor (Rattus norvegicus, UniProt P43140); assay: DRUGMATRIX: Alpha-1A adrenergic receptor radioligand binding (ligand: prazosin); format: cell membranes, Wistar, Submaxillary gland, Membrane; details: Not Active = under 50% inhibition at 10 µM
T4 sequence (P43140 whole entry): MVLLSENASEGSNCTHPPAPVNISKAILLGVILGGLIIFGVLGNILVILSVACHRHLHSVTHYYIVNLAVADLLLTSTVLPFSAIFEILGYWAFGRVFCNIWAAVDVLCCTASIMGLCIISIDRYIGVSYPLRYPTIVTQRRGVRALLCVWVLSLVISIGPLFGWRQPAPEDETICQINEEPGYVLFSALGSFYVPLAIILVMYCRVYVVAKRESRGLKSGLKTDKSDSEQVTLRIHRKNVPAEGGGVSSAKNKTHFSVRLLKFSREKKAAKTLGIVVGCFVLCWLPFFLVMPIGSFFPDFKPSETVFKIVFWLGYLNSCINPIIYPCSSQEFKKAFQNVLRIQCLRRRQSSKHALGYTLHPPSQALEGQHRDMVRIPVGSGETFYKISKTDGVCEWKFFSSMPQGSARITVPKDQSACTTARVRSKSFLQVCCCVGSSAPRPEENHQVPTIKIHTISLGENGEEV

[5] = DRUGMATRIX: Purinergic P2X radioligand binding (ligand: [3H] alpha, beta-Methylene-ATP); format: cell membranes, Oryctolagus cuniculus, New Zealand albino, Urinary bladder, Membrane; details: Not Active = under 50% inhibition at 10 µM
[6] = molecular target: T5, Calcitonin receptor (Homo sapiens, UniProt P30988); format: cell membranes, Membrane; details: t47d; further: in other assays of this panel Not Active means under 50% inhibition at 10 µM
T5 sequence (P30988 whole entry): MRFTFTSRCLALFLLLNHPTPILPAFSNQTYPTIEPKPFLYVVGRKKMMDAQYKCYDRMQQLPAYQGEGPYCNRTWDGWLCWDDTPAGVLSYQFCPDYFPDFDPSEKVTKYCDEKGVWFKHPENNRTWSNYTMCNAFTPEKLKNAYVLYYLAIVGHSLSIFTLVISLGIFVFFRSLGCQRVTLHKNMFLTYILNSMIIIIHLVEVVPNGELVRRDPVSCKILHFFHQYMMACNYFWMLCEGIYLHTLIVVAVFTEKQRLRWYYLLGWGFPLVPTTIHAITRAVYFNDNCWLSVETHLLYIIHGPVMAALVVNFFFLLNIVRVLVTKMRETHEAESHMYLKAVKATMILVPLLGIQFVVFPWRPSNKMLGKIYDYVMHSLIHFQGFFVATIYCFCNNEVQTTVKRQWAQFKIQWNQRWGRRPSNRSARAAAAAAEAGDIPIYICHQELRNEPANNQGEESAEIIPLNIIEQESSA

[7] = molecular target: D(1A) dopamine receptor (Homo sapiens, UniProt P21728); assay: DRUGMATRIX: Dopamine D1 radioligand binding (ligand: [3H] SCH-23390); format: cell membranes, CHO, Membrane; details: cho; Not Active = under 50% inhibition at 10 µM
D(1A) dopamine receptor, sequence (P21728 whole entry): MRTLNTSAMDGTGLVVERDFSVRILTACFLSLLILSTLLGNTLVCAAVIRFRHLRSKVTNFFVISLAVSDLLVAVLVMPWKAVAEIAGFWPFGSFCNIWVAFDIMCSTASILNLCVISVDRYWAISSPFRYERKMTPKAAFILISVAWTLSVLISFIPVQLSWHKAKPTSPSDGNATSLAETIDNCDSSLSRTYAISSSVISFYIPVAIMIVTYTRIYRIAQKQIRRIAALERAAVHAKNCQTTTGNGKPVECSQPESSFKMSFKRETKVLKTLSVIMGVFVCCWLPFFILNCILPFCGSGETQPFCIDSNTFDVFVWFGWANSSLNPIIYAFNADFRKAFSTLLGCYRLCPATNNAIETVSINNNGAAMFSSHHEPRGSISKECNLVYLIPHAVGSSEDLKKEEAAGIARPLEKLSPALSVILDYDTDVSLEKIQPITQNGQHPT

Row | Compound | IC50 [1] | Ki [1] | IC50 [2] | Ki [2] | IC50 [3] | Ki [3] | IC50 [4] | Ki [4] | IC50 [5] | Ki [5] | IC50 [6] | Ki [6] | IC50 [7] | Ki [7] | IC50 ([4]; read-out: IC50) [nM] | Ki ([4]; read-out: Ki) [nM]
1 | POLYVINYL ALCOHOL | Not Active | Not Active | Not Active | Not Active | Not Active | Not Active | Not Active | Not Active | Not Active | Not Active | Not Active | Not Active | Not Active | Not Active | – | –
2 | CCC[C@@H]1C[C@@H](C(=O)N[C@@H]([C@H]2O[C@H](SC)[C@H](O)[C@@H](O)[C@H]2O)[C@H](C)Cl)N(C)C1 [CLINDAMYCIN] | Not Active | – | Not Active | – | Not Active | – | Not Active | – | Not Active | Not Active | Not Active | – | Not Active | – | – | –
3 | CN(Cc1cnc2nc(N)nc(N)c2n1)c1ccc(C(=O)N[C@@H](CCC(=O)O)C(=O)O)cc1 [METHOTREXATE] | Not Active | – | Not Active | – | Not Active | – | Not Active | – | Not Active | Not Active | Not Active | – | Not Active | – | – | –
4 | CO[C@@]1(NC(=O)CSCC#N)C(=O)N2C(C(=O)O)=C(CSc3nnnn3C)CS[C@@H]21 [CEFMETAZOLE] | Not Active | – | Not Active | – | Not Active | – | Not Active | – | Not Active | Not Active | Not Active | – | Not Active | – | – | –
5 | CC(C(=O)O)c1ccc(CC2CCCC2=O)cc1 (stereo not given) [LOXOPROFEN] | Not Active | – | Not Active | – | Not Active | – | Not Active | – | Not Active | Not Active | Not Active | – | Not Active | – | – | –
6 | CCCCCC[C@H]1C(=O)O[C@H](C)[C@H](NC(=O)c2cccc(NC=O)c2O)C(=O)O[C@@H](C)[C@@H]1OC(=O)CC(C)C [ANTIMYCIN A] | Not Active | – | Not Active | – | Not Active | – | Not Active | – | Not Active | Not Active | Not Active | – | Not Active | – | – | –
7 | CC[C@H]1OC(=O)[C@H](C)[C@@H](O[C@H]2C[C@@](C)(OC)[C@@H](O)[C@H](C)O2)[C@H](C)[C@@H](O[C@@H]2O[C@H](C)C[C@H](N(C)C)[C@H]2O)[C@](C)(O)C[C@@H](C)CN(C)[C@H](C)[C@@H](O)[C@]1(C)O [AZITHROMYCIN] | Not Active | – | Not Active | – | Not Active | – | Not Active | – | Not Active | Not Active | Not Active | – | Not Active | – | – | –
8 | CCCCC1C(=O)N(c2ccccc2)N(c2ccccc2)C1=O [PHENYLBUTAZONE] | Not Active | – | Not Active | – | Not Active | – | Not Active | – | Not Active | Not Active | Not Active | – | Not Active | – | – | –
9 | NC(=O)N1c2ccccc2C=Cc2ccccc21 [CARBAMAZEPINE] | Not Active | – | Not Active | – | Not Active | – | Not Active | – | Not Active | Not Active | Not Active | – | Not Active | – | – | –
10 | O=C(c1ccccc1Cl)N1CCC(Cc2ccccc2)CC1 | Not Active | – | Not Active | – | Not Active | – | Not Active | – | Not Active | Not Active | Not Active | – | Not Active | – | – | –
11 | Cc1cccc(Nc2cc(Cl)nc(SCC(=O)O)n2)c1C [PIRINIXIC ACID] | Not Active | – | Not Active | – | Not Active | – | Not Active | – | Not Active | Not Active | Not Active | – | Not Active | – | – | –
12 | CC(CCc1ccc(O)cc1)NCCc1ccc(O)c(O)c1 (stereo not given) [DOBUTAMINE] | Not Active | – | Not Active | – | Not Active | – | – | – | Not Active | Not Active | Not Active | – | Not Active | – | 110 | 45
13 | C/C=C\c1ccc(O)c(OC)c1 [ISOEUGENOL] | Not Active | – | Not Active | – | Not Active | – | Not Active | – | Not Active | Not Active | Not Active | – | Not Active | – | – | –
14 | CCOC(=O)C1=C(C)NC(C)=C(C(=O)OC)C1c1cccc(Cl)c1Cl (stereo not given) [FELODIPINE] | Not Active | – | Not Active | – | Not Active | – | Not Active | – | Not Active | Not Active | Not Active | – | Not Active | – | – | –
15 | C[C@H](C(=O)O)c1cccc(C(=O)c2ccccc2)c1 [DEXKETOPROFEN] | Not Active | – | Not Active | – | Not Active | – | Not Active | – | Not Active | Not Active | Not Active | – | Not Active | – | – | –
16 | Cc1cn[nH]c1 [FOMEPIZOLE] | Not Active | – | Not Active | – | Not Active | – | Not Active | – | Not Active | Not Active | Not Active | – | Not Active | – | – | –
17 | O=c1cc(-c2ccccc2)oc2ccc3ccccc3c12 [BETA-NAPHTHOFLAVONE] | Not Active | – | Not Active | – | Not Active | – | Not Active | – | Not Active | Not Active | Not Active | – | Not Active | – | – | –
18 | CO[C@H]1[C@@H](O)[C@H](N)[C@@H](O[C@H]2O[C@H]([C@H](C)N)CC[C@H]2N)[C@H](O)[C@@H]1N(C)C(=O)CN [ASTROMICIN] | Not Active | – | Not Active | – | Not Active | – | Not Active | – | Not Active | Not Active | Not Active | – | Not Active | – | – | –
19 | N=C(N)N/N=C/c1c(Cl)cccc1Cl [GUANABENZ] | Not Active | – | Not Active | – | Not Active | – | – | – | Not Active | Not Active | Not Active | – | Not Active | – | – | –
20 | CC(C)(C)c1ccc(S(=O)(=O)/C=C/C#N)cc1 [BAY-11-7085] | Not Active | – | Not Active | – | Not Active | – | Not Active | – | Not Active | Not Active | Not Active | – | – | – | – | –
